According to patent publication US7737120B2 (Aicuris GmbH & Co. KG, priority 2004, dated 2010):
“Also recorded” adds a separate entry of the source.

Columns and labels:
[1] = tested on: subtilisin; assay: subtilisin (1:50) in cleavage buffer (0.1 M ammonium hydrogencarbonate/0.5 M urea pH 8) with methanol; conditions: 37° C., up to 24 h
[2] = tested on: papain; assay: papain (1:50) in cleavage buffer (0.1 M sodium phosphate/10 mM cysteine, 2 mM EDTA pH 6.5) with methanol; conditions: 37° C., up to 24 h
[3] = tested on: thermolysin; assay: thermolysin (1:50) in cleavage buffer (0.1 M ammonium hydrogencarbonate/0.5 M urea pH 8) with methanol; conditions: 37° C., up to 24 h
[4] = tested on: chymotrypsin; assay: chymotrypsin (1:50) in cleavage buffer (0.1 M ammonium hydrogencarbonate/0.5 M urea pH 8) with methanol; conditions: 37° C., up to 24 h
[5] = tested on: bromelain; assay: bromelain (1:50) in cleavage buffer (0.1 M sodium phosphate, 10 mM cysteine, 2 mM EDTA pH 6.5) with methanol; conditions: 37° C., up to 24 h
[6] = tested on: chymotrypsin; assay: preparative cleavage, chymotrypsin (1:25) in cleavage buffer (0.1 M ammonium hydrogencarbonate/0.5 M urea pH 8) with methanol; conditions: 37° C., up to about 70 min
[7] = tested on: proteinase K; assay: proteinase K (1:50) in cleavage buffer (0.1 M sodium tetraborate pH 9) with methanol; conditions: 37° C., up to 24 h
[8] = tested on: thermolysin; assay: thermolysin (1:50) in cleavage buffer (0.1 M tris(hydroxymethyl)aminomethane/5 mM calcium chloride pH 7.45) with methanol; conditions: 37° C., up to 24 h
[9] = tested on: pepsin; assay: pepsin; conditions: cited from earlier work
[10] = the buffer used (enzymatic digestion experiments)
[11] = tested on: Gram-positive aerobic and anaerobic bacteria; conditions: statement in words, background section; cited from earlier work
[12] = tested on: pepsin, trypsin, chymotrypsin and mucosal peptidase; conditions: cited from earlier work

Substance	fragment found [1]	fragment found [2]	fragment found [3]	fragment found [4]	fragment found [5]	fragment found [6]	fragment found [7]	fragment found [8]	not cleaved [9]	fragment found [10]	activity against Gram-positive aerobic and anaerobic bacteria [11]	enzymatic digestion [12]
D-Leu-Leu-Ala(3-cyclohexyl)-Leu(OH)-Leu-D-Arg-Ile-allo-Thr-Gly-Asn(OH)-Ser	Peptide 4-11 (Leu(OH)-Leu-Arg-Ile-(allo)Thr-Gly-Asn(OH)-Ser); also recorded: Peptide 1-3 (Leu-Leu-PTHAla(3-cyclohexyl)*)	Peptide 5-11 (Leu-Arg-Ile-(allo)Thr-Gly-Asn(OH)-Ser); also recorded: Peptide 5-9 (Leu-Arg-Ile-(allo)Thr-Gly); also recorded: Peptide 10-11 (Asn(OH)-Ser); also recorded: Peptide 1-4 (Leu-Leu-PTHAla(3-cyclohexyl)*-Leu(OH))	Peptide 1-2 (Leu-Leu)	Peptide 4-11 (Leu(OH)-Leu-Arg-Ile-(allo)Thr-Gly-Asn(OH)-Ser); also recorded: Peptide 1-3 (Leu-Leu-PTHAla(3-cyclohexyl)*); also recorded: deamidated form (1-11); also recorded: deamidated form (4-11)	Peptide 1-9 (Leu-Leu-PTHAla(3-cyclohexyl)*-Leu(OH)-Leu-Arg-Ile-(allo)Thr-Gly); also recorded: Peptide 10-11 (Asn(OH)-Ser)	fragment 1-3 (LL(3-cyclohexyl)A); also recorded: fragment 4-11	–	–	–	–	–	–
D-Leu-Leu-Phe-Leu(OH)-Leu-D-Arg-Ile-allo-Thr-Gly-Asn(OH)-Ser	Peptide 4-11 (Leu(OH)-Leu-Arg-Ile-(allo)Thr-Gly-Asn(OH)-Ser); also recorded: Peptide 1-3 (Leu-Leu-Phe)	Peptide 5-11 (Leu-Arg-Ile-(allo)Thr-Gly-Asn(OH)-Ser); also recorded: Peptide 5-9 (Leu-Arg-Ile-(allo)Thr-Gly); also recorded: Peptide 10-11 (Asn(OH)-Ser); also recorded: Peptide 1-4 (Leu-Leu-Phe-Leu(OH))	–	Peptide 4-11 (Leu(OH)-Leu-Arg-Ile-(allo)Thr-Gly-Asn(OH)-Ser); also recorded: Peptide 1-3 (Leu-Leu-Phe)	Peptide 1-9 (Leu-Leu-Phe-Leu(OH)-Leu-Arg-Ile-(allo)Thr-Gly); also recorded: Peptide 10-11 (Asn(OH)-Ser)	fragment 4-11; also recorded: fragment 1-3 (LLF)	Peptide 4-11 (Leu(OH)-Leu-Arg-Ile-(allo)Thr-Gly-Asn(OH)-Ser); also recorded: Peptide 5-11 (Leu-Arg-Ile-(allo)Thr-Gly-Asn(OH)-Ser)	Peptide 3-11 (Phe-Leu(OH)-Leu-Arg-Ile-(allo)Thr-Gly-Asn(OH)-Ser); also recorded: Peptide 1-2 (Leu-Leu)	–	–	–	–
D-Leucyl-L-leucyl-[(3R)-3-hydroxy-L-phenylalanyl)]-[(3R)-3-hydroxy-L-leucyl]-L-leucyl-D-arginyl-L-isoleucyl-L-allothreonyl-glycyl-[(3S)-3-hydroxy-L-asparaginyl]-L-serine-C1^0.11-O3^0.3-lactone bistrifluoroacetate	–	–	–	–	–	–	–	–	no enzymatic digestion (in the case of pepsin)	open-chain lysobactin; also recorded: β-hydroxyaspartate unit	–	–
D-Leucyl-N-1-{(3S,6S,12S,15S,18R,21S,24S,27S,28R)-6-[(1S)-2-amino-1-hydroxy-2-oxoethyl-]18-(3-{[amino(imino)methyl]amino}propyl)-12-[(1S)-1-hydroxyethyl]-3-(hydroxymethyl)-24-[(1R)-1-hydroxy-2-methylpropyl]-21-isobutyl-15-[(1S)-1-methylpropyl]-2,5,8,11,14,17,20,23,26-nonaoxo-28-phenyl-1-oxa-4,7,10,13,16,19,22,25-octaazacyclo-octacosan-27-yl}-L-leucinamide Bistrifluoroacetate [Lysobactin]	–	–	–	–	–	–	–	–	–	–	strong activity	no (such as in the case of pepsin, for example) or only inadequate enzymatic digestion
